Measured values published in paper PMC6277767, “Broad and Region-Specific Impacts of the Synthetic Cannabinoid CP 55,940 in Adolescent and Adult Female Mouse Brains” (Frontiers in Molecular Neuroscience, 2018).

Tested on: CD1 female mouse brain lipidome
Assay: Brain-region lipid levels (HPLC/MS/MS lipidomics) 2 h after single i.p. 3 mg/kg CP 55,940 vs vehicle
Assay type: in vivo
Settings: hippocampus
Method: The Bloomington Institutional Animal Care and Use Committee of Indiana University reviewed and approved the animal procedures. Female mice from the CD1 strain were utilized to match our study examining THC’s effects on the brain lipidome ([Leishman et al., 2018]). Mice were given a single i.p. injection of either 3 mg/kg CP or 1:1:18 cremophor:ethanol:saline vehicle (please refer to the section “3 mg/kg CP Is Relevant for Synthetic Cannabinoid Abuse and Has Stronger Effects on the Female Mouse Brain Lipidome During Adolescence” for a justification of dose and use of female mice). Three different age groups were given injections: PND 35 and PND 50 adolescents, and adult mice (PND 113). At least eight mice in each age group received CP and at least eight received vehicle. Matching the THC study time course ([Leishman et al., 2018]), mice were sacrificed via rapid decapitation 2 h after injection. Brains were immediately removed and flash-frozen in liquid nitrogen, and then stored at -80°C until dissections were performed. Brains were dissected on an ice-cold dissection plate into the following regions: STR, HIPP, CER, THAL, CTX, HYP, MID, and STEM. These abbreviations for these brain areas will be used exclusively when discussing the results generated by these specific dissections. Each dissected area was immediately placed in liquid nitrogen and then stored at -80°C until used for lipid extraction.
Tissue extracts were performed as previously described ([Bradshaw et al., 2006]; [Stuart et al., 2013]; [Raboune et al., 2014]; [Leishman et al., 2016a],[b], [2017], [2018]). First, samples were shock frozen in liquid nitrogen, weighed, and transferred to a centrifuge tube. The mass of the largest sample was multiplied by 50 to determine how many milliliters of HPLC-grade methanol (Fisher, Fair Lawn, NJ, United States) to add. Then, samples were spiked with 500 pmol deuterium-labeled NAGly (d8NAGly; Cayman Chemical, Ann Arbor, MI, United States). Samples were placed on ice in darkness for 2 h then individually homogenized and centrifuged at 19,000 × g for 20 min at 20°C. Supernatants were diluted with HPLC water (purified in house) to make a solution of 75% water, 25% supernatant. Lipids were partially purified on C18 solid phase extraction columns (Agilent, Palo Alto, CA, United States). A series of four elutions with 1.5 mL of 60%, 75%, 85%, and 100% methanol were collected ([Stuart et al., 2013]; [Leishman et al., 2016a],[b], [2018]).
As previously described ([Bradshaw et al., 2006]; [Tan et al., 2006]; [Smoum et al., 2010]; [Stuart et al., 2013]; [Tortoriello et al., 2013]; [Raboune et al., 2014]; [Leishman et al., 2016a],[b], [2017], [2018]), samples were analyzed using an Applied Biosystems API 3000 triple quadrupole mass spectrometer with electrospray ionization (Foster City, CA, United States). Using an Agilent XDB-C18 reversed phase analytical column and optimized mobile phase gradients, 20 μL from each elution were chromatographed. Two Shimadzu 10ADvp pumps (Columbia, MD, United States) provided the pressure for gradient elution. Mobile phase A: 20% methanol, 80% water (v/v) and 1 mM ammonium acetate (Sigma, St. Louis, MO, United States). Mobile phase B: 100% methanol, 1 mM ammonium acetate. Every method run began with 0% mobile phase B, reached 100% mobile phase B flowing at 0.2 mL/min, and gradually returned to 0% mobile phase B.
This screening library will be referred to as the lipidome when discussing data from this study. HPLC/MS/MS data were analyzed using Analyst software (Applied Biosystems) ([Bradshaw et al., 2006]; [Tan et al., 2006]; [Stuart et al., 2013]; [Tortoriello et al., 2013]; [Raboune et al., 2014]; [Leishman et al., 2016a],[b], [2017], [2018]). Chromatograms (Supplementary Figure 3) were generated by determining the retention time of analytes from the analytical column with a [M-1] or [M+1] parent peak and a fragmentation peak corresponding to the programmed values. […]

[1] = PND 50, 3 mg/kg CP 55,940 vs Veh
[2] = PND 50 female mice, 3mg/kg CP 55,940, mean

## CCCCCCC(C)(C)c1ccc([C@@H]2C[C@H](O)CC[C@H]2CCCO)c(O)c1 [CP 55,940]
[1]
  Linoleic acid, Magnitude (x Veh level): 0.73 x Veh level
  N-arachidonoyl alanine Magnitude (x Veh level): 0.71 x Veh level
  N-arachidonoyl alanine, Direction (relative to Veh): ↓
  N-arachidonoyl ethanolamine, Direction (relative to Veh): ↓
  N-arachidonoyl ethanolamine, Magnitude (x Veh level): 0.64 x Veh level
  N-arachidonoyl glycine Direction (relative to Veh): ↓
  N-arachidonoyl glycine Magnitude (x Veh level): 0.52 x Veh level
  N-arachidonoyl serine Direction (relative to Veh): ↓
  N-arachidonoyl serine Magnitude (x Veh level): 0.51 x Veh level
  N-arachidonoyl taurine Direction (relative to Veh): ↓
  N-arachidonoyl taurine Magnitude (x Veh level): 0.69 x Veh level
  N-arachidonoyl tyrosine, Direction (relative to Veh): ↑
  N-arachidonoyl tyrosine, Magnitude (x Veh level): 1.38 x Veh level
  N-docosahexaenoyl ethanolamine, Direction (relative to Veh): ↓
  N-docosahexaenoyl ethanolamine, Magnitude (x Veh level): 0.73 x Veh level
  N-linoleoyl ethanolamine, Direction (relative to Veh): ↓
  N-linoleoyl ethanolamine, Magnitude (x Veh level): 0.65 x Veh level
  N-linoleoyl serine Direction (relative to Veh): ↑
  N-linoleoyl serine Magnitude (x Veh level): 1.32 x Veh level
  N-oleoyl leucine Direction (relative to Veh): ↓
  N-oleoyl leucine Magnitude (x Veh level): 0.77 x Veh level
  N-oleoyl serine, Direction (relative to Veh): ↑
  N-oleoyl serine, Magnitude (x Veh level): 1.27 x Veh level
  PGE2 Direction (relative to Veh): ↑
  PGE2 Magnitude (x Veh level): 1.15 x Veh level
  PGF2α Direction (relative to Veh): ↑
  PGF2α Magnitude (x Veh level): 1.22 x Veh level
[2]
  2-arachidonoyl glycerol level: 2.77E-09
  2-linoleoyl glycerol level: 1.81E-10
  2-oleoyl glycerol level: 1.71E-09
  2-palmitoyl glycerol level: 2.49E-10
  6-ketoPGF1α level: 6.15E-11
  11-OH-THC level: BDL
  11-nor-9-carboxyTHC level: BDL
  Arachidonic acid level: 1.73E-09
  Cannabidiol level: BDL
  Linoleic acid level: 5.21E-10
  N-arachidonoyl GABA level: 2.39E-11
  N-arachidonoyl alanine level: 1.94E-12
  N-arachidonoyl dopamine level: BDL
  N-arachidonoyl ethanolamine level: 2.58E-11
  N-arachidonoyl glycine level: 4.78E-13
  N-arachidonoyl proline level: BDL
  N-arachidonoyl serine level: 5.36E-13
  N-arachidonoyl taurine level: 8.7E-11
  N-arachidonoyl tryptophan level: BDL
  N-arachidonoyl tyrosine level: 2.3E-12
  N-docosahexaenoyl ethanolamine level: 1.92E-11
  N-docosahexaenoyl glycine level: 5.66E-14
  N-docosahexaenoyl methionine level: BDL
  N-docosahexaenoyl proline level: BDL
  N-docosahexaenoyl tryptophan level: BDL
  N-docosahexaenoyl valine level: BDL
  N-linoleoyl ethanolamine level: 2.31E-11
  N-linoleoyl glycine level: 8.35E-14
  N-linoleoyl methionine level: BDL
  N-linoleoyl proline level: BDL
  N-linoleoyl serine level: 7.96E-11
  N-linoleoyl tryptophan level: BDL
  N-linoleoyl valine level: BDL
  N-nervonoyl valine level: BDL
  N-oleoyl GABA level: 1.53E-11
  N-oleoyl alanine level: 2.17E-12
  N-oleoyl dopamine level: BDL
  N-oleoyl ethanolamine level: 8.7E-11
  N-oleoyl glycine level: 1.25E-13
  N-oleoyl leucine level: 7.72E-13
  N-oleoyl phenylalanine level: 1.52E-13
  N-oleoyl proline level: BDL
  N-oleoyl serine level: 4.19E-10
  N-oleoyl tryptophan level: BDL
  N-palmitoyl GABA level: 1.72E-11
  N-palmitoyl alanine level: 2.35E-12
  N-palmitoyl ethanolamine level: 2.9E-11
  N-palmitoyl glycine level: 5.47E-12
  N-palmitoyl leucine level: 1.17E-12
  N-palmitoyl methionine level: 9.9E-12
  N-palmitoyl phenylalanine level: 9.31E-14
  N-palmitoyl proline level: BDL
  N-palmitoyl serine level: 1.51E-11
  N-palmitoyl tryptophan level: BDL
  N-palmitoyl tyrosine level: 9.92E-13
  N-stearoyl GABA level: 1.36E-11
  N-stearoyl alanine level: 2.21E-12
  N-stearoyl ethanolamine level: 1.21E-11
  N-stearoyl glycine level: 2.09E-12
  N-stearoyl leucine level: 1.45E-12
  N-stearoyl phenylalanine level: 9.22E-14
  N-stearoyl proline level: BDL
  N-stearoyl serine level: 3.94E-11
  N-stearoyl tryptophan level: BDL
  Oleic acid level: 5.52E-10
  PGE2 level: 5.28E-10
  PGF2α level: 3.99E-10
  PhosphoLEA level: 9.47E-12
  THC level: BDL
adult, 3 mg/kg CP 55,940
  2-arachidonoyl glycerol level, Mean: 2.63E-09
  2-linoleoyl glycerol level, Mean: 1.64E-10
  2-linoleoyl glycerol: Direction (relative to Veh): ↓
  2-linoleoyl glycerol: Magnitude (x Veh level): 0.74 x Veh level
  2-oleoyl glycerol level, Mean: 1.58E-09
  2-palmitoyl glycerol level, Mean: 1.43E-10
